Laboratory results: the supplement of paper PMC8882468
± gives the standard deviation of the averaged measurements.

How the values were obtained:
Experiment in all cases: CTG-3D luminescence at 96 h relative to day-0 seeding control (ratio to day 0); higher = more growth / less cytotoxicity; PDxO 3D drug screen, 96 h, CTG-3D normalised to day-0 seeding control.
[1] = system: HCI-025 (organoid from a breast cancer xenograft)
[2] = system: HCI-016 (organoid from a triple-negative breast cancer xenograft)
[3] = system: HCI-003.E2 (organoid from an ER-positive breast cancer xenograft)
[4] = system: HCI-005.E2 (organoid from a breast cancer xenograft with a HER2-positive history)
[5] = system: HCI-019 (organoid from a triple-negative breast cancer xenograft)
[6] = system: HCI-011.E2 (organoid from an ER-positive breast cancer xenograft)

CC(C)(C(=O)NCC(F)(F)C(F)(F)F)C(=O)N[C@@H]1C(=O)Nc2ccccc2-c2ccccc21
CTG-3D luminescence at 96 h
Conditions	12.5 pM	0.00025 µM	0.005 µM	0.1 µM	1 µM	10 µM	100 µM	625 fM
[1], days in culture: 172	2.02	2.24	3.81	2.44	2.2	2.06	0.839	2.75
[1], days in culture: 209	1.5	1.73	1.93	1.61	1.83	2.01	0.831	1.47
[1], days in culture: 218	2.02	1.91	1.95	1.42	1.45	2.15	1.22	2.19
[2], days in culture: 153	2.8	1.65	2.24	1.56	1.82	1.88	0.801	2.19
[2], days in culture: 172	2.46	1.82	1.92	1.28	1.18	1.37	0.772	1.91
[2], days in culture: 190	1.8	1.23	1.17	1.04	1.47	1.46	0.817	1.22
[2], days in culture: 199	1.59	1.04	1.35	1.51	1.42	1.67	0.796	1.63
[5], days in culture: 110	1.83	1.52	1.54	2.23	1.47	2.09	1.37	1.84
[5], days in culture: 131	2.53	3.17	3.05	3.09	2.31	3.61	2.28	4.34
[5], days in culture: 152	3.04	2.87	3.36	1.92	2.19	2.41	1.12	1.98
[6], days in culture: 74	2.34	1.83	1.89	1.8	1.57	2.5	1.76	1.73

CTG-3D luminescence at 96 h
Conditions	12.5 pM	0.00025 µM	0.005 µM	0.1 µM	1 µM	10 µM	100 µM	625 fM
[3]	2.16 ± 0.71	2.26 ± 0.61	2.01 ± 0.5	2.28 ± 0.51	1.96 ± 0.61	2.11 ± 0.91	0.942 ± 0.23	1.86 ± 0.33
[4]	1.47 ± 0.22	1.48 ± 0.29	1.45 ± 0.36	1.8 ± 0.5	1.18 ± 0.59	1.29 ± 0.3	1.03 ± 0.34	1.54 ± 0.15
[6]	1.55 ± 0.018	1.61 ± 0.057	1.49 ± 0.27	1.97 ± 0.57	1.71 ± 0.46	2.01 ± 0.5	1.76 ± 0.33	1.94 ± 0.38

CCN(c1cc(C#CCN2CCOCC2)cc(C(=O)NCc2c(C)cc(C)[nH]c2=O)c1C)[C@H]1CC[C@H](N(C)CCOC)CC1
CTG-3D luminescence at 96 h
Conditions	12.5 pM	0.00025 µM	0.005 µM	0.1 µM	1 µM	10 µM	100 µM	625 fM
[1], days in culture: 172	2.86	2.03	3.74	2.35	2.66	1.89	2.28	2.74
[1], days in culture: 209	2.08	3.04	2.37	1.7	2.53	1.47	1.54	2.18
[1], days in culture: 218	1.66	1.66	1.76	1.73	1.43	2.1	1.58	1.76
[2], days in culture: 153	2.92	1.14	2.22	1.64	2.25	2.06	1.5	3.1
[2], days in culture: 172	2.13	2.17	1.72	1.56	2.1	1.64	1.52	1.33
[2], days in culture: 190	2.02	1.67	1.75	1.5	1.73	1.62	1.56	1.36
[2], days in culture: 199	1.74	2.22	2.22	1.86	2.01	1.95	2.02	2.09
[5], days in culture: 110	2.05	1.49	1.58	2.08	1.81	2.75	2.01	2.28
[5], days in culture: 131	2.63	3.96	3.07	3.21	1.98	2.33	0.501	3.23
[5], days in culture: 152	2.5	4.04	2.16	1.89	2.77	1.9	0.188	2.36
[6], days in culture: 74	1.76	2.24	2.14	1.77	1.99	3.31	2.8	1.61

CTG-3D luminescence at 96 h
Conditions	12.5 pM	0.00025 µM	0.005 µM	0.1 µM	1 µM	10 µM	100 µM	625 fM
[3]	1.84 ± 0.67	2.12 ± 0.78	1.71 ± 0.35	1.96 ± 0.49	1.74 ± 0.4	1.89 ± 0.95	0.658 ± 0.5	1.65 ± 0.4
[4]	1.1 ± 0.23	1.52 ± 0.39	1.38 ± 0.23	1.82 ± 0.34	1.14 ± 0.16	1.22 ± 0.23	1.29 ± 0.23	1.34 ± 0.22
[6]	1.4 ± 0.56	1.39 ± 0.11	1.48 ± 0.29	1.74 ± 0.69	1.74 ± 0.84	2.09 ± 0.45	2.03 ± 0.59	1.63 ± 0.4
